The subject of this series is ICAM-1 mRNA. The series can be described thus: ICAM-1 mRNA knock-down in transfected Calu-1 cells (Taqman RT-PCR). The format is cell-based, human. The note with it: Calu-1 cells, 10 nM siNA, 24 hrs post-transfection, mean ± S.D., relative to non-targeting control. How it is done:
Calu-1 (human; ATCC cat# HTB-54): Cells were cultured at 37° C. in the presence of 5% CO2 and grown in McCoy's 5a medium supplemented with fetal bovine serum at a final concentration of 10% and 100 μg/mL of streptomycin and 100 U/mL penicillin.
All transfections were performed using RNAiMax (Invitrogen Cat# 13778-150) as per the manufacturer's instructions.
Calu-1 cells were plated in all wells of a tissue-culture treated, 96-well plate at final counts of 5,000 cells/well in 100 μL of appropriate culture media. Cells were cultured for 24 hours after plating at 37° C. in the presence of 5% CO2.
After 24 hours, complexes containing siNA and RNAiMax were created as follows. A solution of RNAiMax diluted 33-fold in OPTI-MEM was prepared. In parallel, solutions of the siNAs for testing were prepared to a final concentration of 120 nM in OPTI-MEM. After incubation of RNAiMax/OPTI-MEM solution at room temperature for 5 min, an equal volume of the siNA solution and the RNAiMax solution were added together for each of the siNAs. […] This solution was incubated at room temperature for 20 minutes. After incubation, 20 uL of the solution was added to each of the relevant wells. The final concentration of siNA in each well was 10 nM and the final volume of RNAiMax in each well was 0.3 uL.
The time of incubation with the RNAiMax-siNA complexes was 24 hours, unless otherwise indicated. There was no change in media between the transfection and harvesting of the cells unless otherwise indicated.
Dose response curves were carried out in a similar fashion in 96-well plates, while maintaining a constant amount of RNAiMax in each transfection.
RNA was extracted from a 96-well plate using the TaqMan® Gene Expression Cells-to-CT™ Kit (Cat# 4399002) with a modified protocol. Briefly, a 60 uL (1 plate) or 110 uL (2 plates) of the Lysis Solution with DNase I was dispensed into each well of the Lysis Buffer Plate (twin.tec full skirt plate). The lysis buffer and stop plates were stored at 4° C. until the cells were washed.
The plate was spun at 1100 rpm for 5 minutes. The culture medium was aspirated and discarded from the wells of the culture plate. The lysis was performed automatically using a BioMek FX instrument and method. After the Biomek method was completed, the lysis plate was incubated for 2 min. at room temperature. The lysis plate can be stored for 2 hours at 4° C., or at −20° C. or −80° C. for two months.
Each well of the reverse transcription plate required 10 uL of 2× reverse transcriptase Buffer, 1 uL of 20× reverse transcription enzyme and 2 uL of nuclease-free water. The reverse transcription master mix was prepared by mixing 2× reverse transcription buffer, 20× reverse transcription enzyme mix, and nuclease-free water. 13 uL of the reverse transcription master mix was dispensed into each well of the reverse transcription plate (semi-skirted). A separate reverse transcription plate was prepared for each cell plate. The plate was loaded onto a Biomek NX or Biomek FX Dual-96 and the Biomek method was run. The program is programmed to automatically added 7 uL of lysate from the cell lysis procedure described above into each well of the reverse transcription plate. The plate is sealed and spun on a centrifuge (1000 rpm for 30 seconds) to settle the contents to the bottom of the reverse transcription plate. The plate is placed in a thermocycler at 37° C. for 60 min, 95° C. for 5 min, and 4° C. until the plate is removed from the thermocycler. Upon removal, if not used immediately, the plate was frozen at −20° C.
A series of probes and primers were used to detect the various mRNA transcripts of the genes of ICAM-1 and ICAM-2 in human cell lines (see Table 2). All the Taqman probes and primers for the experiments here-in described were supplied as pre-validated sets by Applied Biosystems, Inc., (see Table 2). The assays were performed on an ABI 7900 instrument, according to the manufacturer's instructions. […]

[invAb] = inverted abasic unit; m = 2'-O-methyl; r = 2'-OH (RNA); f = 2'-fluoro

Take “29281-DC: siNA duplex, ICAM-1 target site 1650 (h); sense B cAGuGAcuGucAcucGAGA TTB; antisense UCUcGAGuGAcAGucAcuGUU (sense CAGUGACUGUCACUCGAGATT; antisense UCUCGAGUGACAGUCACUGUU; sense: DNA at AGT, 2'-fluoro at CU, [invAb] at 5' end, 3' end, backbone not given here; antisense: sugars from the 5' end rrrfmmmfmmfmmffmffmmm, backbone not given here)”: the “% KD Human” value came to 45 ± 21%.
Turning to “29283-DC: siNA duplex, ICAM-1 target site 1811 (h); sense B cucAGcAcGuAccucuAuA TTB; antisense UAUAGAGGuAcGuGcuGAGUU (sense CUCAGCACGUACCUCUAUATT; antisense UAUAGAGGUACGUGCUGAGUU; sense: DNA at AGT, 2'-fluoro at CU, [invAb] at 5' end, 3' end, backbone not given here; antisense: sugars from the 5' end rrrmmmmmfmfmfmffmmmmm, backbone not given here)”, the “% KD Human” value is recorded as 63 ± 8%.
Regarding “29289-DC: siNA duplex, ICAM-1 target site 2152 (h); sense B GGAGcAAGAcucAAGAcAu TTB; antisense AUGucuuGAGucuuGcuccUU (sense GGAGCAAGACUCAAGACAUTT; antisense AUGUCUUGAGUCUUGCUCCUU; sense: DNA at AGT, 2'-fluoro at CU, [invAb] at 5' end, 3' end, backbone not given here; antisense: sugars from the 5' end rrrffffmmmffffmffffmm, backbone not given here)”, the “% KD Human” value was 78 ± 15%.
Turning to “29290-DC: siNA duplex, ICAM-1 target site 1226 (h); sense B cAGAcAGuGAccAucuAcA TTB; antisense UGUAGAuGGucAcuGucuGUU (sense CAGACAGUGACCAUCUACATT; antisense UGUAGAUGGUCACUGUCUGUU; sense: DNA at AGT, 2'-fluoro at CU, [invAb] at 5' end, 3' end, backbone not given here; antisense: sugars from the 5' end rrrmmmfmmffmffmfffmmm, backbone not given here)”, the “% KD Human” value is listed as 47 ± 18%.
Regarding “29291-DC: siNA duplex, ICAM-1 target site 2120 (h); sense B GAucuGuAGucAcAuGAcu TTB; antisense AGUcAuGuGAcuAcAGAucUU (sense GAUCUGUAGUCACAUGACUTT; antisense AGUCAUGUGACUACAGAUCUU; sense: DNA at AGT, 2'-fluoro at CU, [invAb] at 5' end, 3' end, backbone not given here; antisense: sugars from the 5' end rrrfmfmfmmffmfmmmffmm, backbone not given here)”, the “% KD Human” value is 84 ± 7%.
As for “29292-DC: siNA duplex, ICAM-1 target site 863 (h); sense B GccAAuuucucGuGccGcA TTB; antisense UGCGGcAcGAGAAAuuGGcUU (sense GCCAAUUUCUCGUGCCGCATT; antisense UGCGGCACGAGAAAUUGGCUU; sense: DNA at AGT, 2'-fluoro at CU, [invAb] at 5' end, 3' end, backbone not given here; antisense: sugars from the 5' end rrrmmfmfmmmmmmffmmfmm, backbone not given here)”, the “% KD Human” value was found to be 76 ± 3%.
“48697-DC: siNA duplex, ICAM-1 target site 1641 (m); sense B GcucAGGAGGAGGccAuAA TTB; antisense UUAuGGccuccuccuGAGcUU (sense GCUCAGGAGGAGGCCAUAATT; antisense UUAUGGCCUCCUCCUGAGCUU; sense: DNA at AGT, 2'-fluoro at CU, [invAb] at 5' end, 3' end, backbone not given here; antisense: sugars from the 5' end rrrfmmfffffffffmmmfmm, backbone not given here)”: the “% KD Human” value came out at 14 ± 11%.
With “48698-DC: siNA duplex, ICAM-1 target site 1611 (m); sense B AGAAAGAucAGGAuAuAcA TTB; antisense UGUAuAuccuGAucuuucuUU (sense AGAAAGAUCAGGAUAUACATT; antisense UGUAUAUCCUGAUCUUUCUUU; sense: DNA at AGT, 2'-fluoro at CU, [invAb] at 5' end, 3' end, backbone not given here; antisense: sugars from the 5' end rrrmfmffffmmfffffffmm, backbone not given here)”, the “% KD Human” value is reported as 34 ± 6%.
As to “48699-DC: siNA duplex, ICAM-1 target site 668 (m); sense B GcuGGcAuuGuucucuAAu TTB; antisense AUUAGAGAAcAAuGccAGcUU (sense GCUGGCAUUGUUCUCUAAUTT; antisense AUUAGAGAACAAUGCCAGCUU; sense: DNA at AGT, 2'-fluoro at CU, [invAb] at 5' end, 3' end, backbone not given here; antisense: sugars from the 5' end rrrmmmmmmfmmfmffmmfmm, backbone not given here)”, the “% KD Human” value is on record as 25 ± 9%.
The figure for “48700-DC: siNA duplex, ICAM-1 target site 1549 (m); sense B uGccAGuAcuGcuGGucAu TTB; antisense AUGAccAGcAGuAcuGGcAUU (sense UGCCAGUACUGCUGGUCAUTT; antisense AUGACCAGCAGUACUGGCAUU; sense: DNA at AGT, 2'-fluoro at CU, [invAb] at 5' end, 3' end, backbone not given here; antisense: sugars from the 5' end rrrmffmmfmmfmffmmfmmm, backbone not given here)” is 13 ± 5%; for “48701-DC: siNA duplex, ICAM-1 target site 1505 (m); sense B AGuAcuGuAccAcucucAA TTB; antisense UUGAGAGuGGuAcAGuAcuUU (sense AGUACUGUACCACUCUCAATT; antisense UUGAGAGUGGUACAGUACUUU; sense: DNA at AGT, 2'-fluoro at CU, [invAb] at 5' end, 3' end, backbone not given here; antisense: sugars from the 5' end rrrmmmmfmmfmfmmfmffmm, backbone not given here)” it is 3 ± 17%.
On to “48702-DC: siNA duplex, ICAM-1 target site 990 (m); sense B AccuuAAcAGucuAcAAcu TTB; antisense AGUuGuAGAcuGuuAAGGuUU (sense ACCUUAACAGUCUACAACUTT; antisense AGUUGUAGACUGUUAAGGUUU; sense: DNA at AGT, 2'-fluoro at CU, [invAb] at 5' end, 3' end, backbone not given here; antisense: sugars from the 5' end rrrfmfmmmffmffmmmmfmm, backbone not given here)”, for which the “% KD Human” value worked out at 19 ± 6%.
Consider “48703-DC: siNA duplex, ICAM-1 target site 394 (m); sense B ccGuGuAuucGuuuccGGA TTB; antisense UCCGGAAAcGAAuAcAcGGUU (sense CCGUGUAUUCGUUUCCGGATT; antisense UCCGGAAACGAAUACACGGUU; sense: DNA at AGT, 2'-fluoro at CU, [invAb] at 5' end, 3' end, backbone not given here; antisense: sugars from the 5' end rrrmmmmmfmmmfmfmfmmmm, backbone not given here)”, for which the “% KD Human” value worked out at 30 ± 15%.

For the origin of these results see patent US20120004282A1, “RNA Interference Mediated Inhibition of the Intercellular Adhesion Molecule 1 (ICAM-1) Gene Expression Using Short Interfering Nucleic Acid (siNA)” (Merck Sharp & Dohme Corp,, priority 2009, published 2012).
